Laboratory results reported in patent publication US20100015128A1, “GRP78 as a Predictor of Responsiveness to Therapeutic Agents” (UNIVERSITY OF SOUTHERN CALIFORNIA, priority 2006, published 2010).

Legend:
BIK = BIK protein induction under stress conditions (Western blot); format: cell-based, human; settings: human cells
Text: Cell lines and culture conditions. The estrogen-dependent cell line MCF-7/BUS was provided by A. M. Soto (Tufts University, Medford, Mass.) and has been described (Soto et al., Environ. Health Perspect. 103:113-22 (1995)). The human embryonic kidney 293T cells and MCF-7/BUS cells were maintained in DMEM supplemented with 10% fetal bovine serum. Estrogen starvation of MCF-7/BUS cells was done as described (Hur et al., PNAS 101:2351-6 (2004)). Briefly, the cells were washed thrice with phenol red-free DMEM and incubated in washing medium at 37° C. for 60 minutes. The MCF-7/BUS cells were then cultured in phenol red-free DMEM supplemented with 5% charcoal/dextran-stripped fetal bovine serum for 24 to 72 hours as indicated. For etoposide treatment, the cells were incubated with 50 μmol/L etoposide for 6 hours and cultured for another 24 hours before harvest.
Western blots and quantitation. The Western blots were done as described (Lee, Methods 35:373-81 (2005)). The primary antibodies were goat anti-BIK (N-19, Santa Cruz Biotechnology, Santa Cruz, Calif.), rat anti-Grp78 (76-E6, Santa Cruz Biotechnology), rat anti-GRP94, rabbit anti-calnexin, rabbit anti-calreticulin (Stressgen, Ann Arbor, Mich.), mouse anti-Flag M2, mouse anti-poly(ADP-ribose) polymerase (PARP; F-2, Santa Cruz Biotechnology, Santa Cruz, Calif.), and mouse anti-h-actin (Sigma-Aldrich, St. Louis, Mo.). Anti-h-actin was diluted at 1:2,000; anti-BIK at 1:500; and other antibodies at 1:1,000. Respective horseradish peroxidase-conjugated secondary antibodies (Santa Cruz Biotechnology, Santa Cruz, Calif.) at 1:1,000 dilution were used. The Western blots were quantitated by Fluor-S® MultiImager (Bio-Rad, Hercules, Calif.) according to the manufacturer's instructions. All quantitations were normalized against h-actin.

GRP78 = test: Western blot of GRP78 in SK-N-SH cells with H129 antibody; format: cell-based, human; settings: 0.5 μM thapsigargin 16 hours
Description: FIGS. 11A, 11B and 11C show specific detection of GRP78 by H129 antibody. FIG. 11A is a Western blot assay. The human neuroblastoma SK-N-SH cells were either grown under normal conditions (−) or treated with 0.5 μM thapsigargin for 16 hours. Fifty μg of total cell lysate prepared from these cells were subjected to Western blot analysis, using the […] (1:1000 dilution). […] In FIG. 11B, Chinese hamster ovary (CHO) cells expressing basal level of GRP78 and its derivative C.1 cells overexpressing GRP78 were embedded in paraffin after fixation in formalin. The sections prepared from these blocks were stained with the immunohistochemical technique using the H129 antibody (1:100 dilution). GRP78 level, as depicted by brown staining, was elevated in C.1 cells as compared to CHO cells (600×). In FIG. 11C, paraffin slides from breast cancer patients were stained with the H129 antibody with the immunohistochemical technique. Examples of plasma cell staining from two different patients are shown.

Question: Which “induction of BIK by ER stress inducers” value (BIK) does the source give for `C/C=C(/C)C(=O)O[C@H]1C(C)=C2[C@H]([C@@H]1OC(=O)CCCCCCC)[C@@](C)(OC(C)=O)C[C@H](OC(=O)CCC)[C@@]1(O)[C@H]2OC(=O)[C@@]1(C)O` [thapsigargin] here?
Answer: Its value is “do not induce”.

Question: And the GRP78 protein band (GRP78)?
Answer: Its GRP78 protein band is “highly inducible”.
